In publication PMC4042160, “In silico, in vitro and cellular analysis with a kinome-wide inhibitor panel correlates cellular LRRK2 dephosphorylation to inhibitor activity on LRRK2” (Frontiers in Molecular Neuroscience, 2014):
“And” between values parts separate entries of the source, which are not always exact repeats. Equal values may be shown once.

Tests used:
[1] = target: T1, GST-tagged truncated LRRK2 containing residues 970 to 2527 (Homo sapiens, UniProt Q5S007); experiment: In vitro LRRKtide peptide-substrate kinase assay, single dose testing (10 μM); type: biochemical; settings: for % LRRKtide phosphorylation relative to solvent: LRRKtide assay @ 10 μM inhibitor, GST-LRRK2 970-2527, 10 μM ATP, mean, N = 3, solvent control = 100%; for activity on LRRK2 kinase activity in vitro (in words): no activity at 10 μM
T1 construct: GST-tagged truncated LRRK2 containing residues 970 to 2527 (Life Technologies); purchased Life Technologies
T1 sequence (Q5S007 970-2527): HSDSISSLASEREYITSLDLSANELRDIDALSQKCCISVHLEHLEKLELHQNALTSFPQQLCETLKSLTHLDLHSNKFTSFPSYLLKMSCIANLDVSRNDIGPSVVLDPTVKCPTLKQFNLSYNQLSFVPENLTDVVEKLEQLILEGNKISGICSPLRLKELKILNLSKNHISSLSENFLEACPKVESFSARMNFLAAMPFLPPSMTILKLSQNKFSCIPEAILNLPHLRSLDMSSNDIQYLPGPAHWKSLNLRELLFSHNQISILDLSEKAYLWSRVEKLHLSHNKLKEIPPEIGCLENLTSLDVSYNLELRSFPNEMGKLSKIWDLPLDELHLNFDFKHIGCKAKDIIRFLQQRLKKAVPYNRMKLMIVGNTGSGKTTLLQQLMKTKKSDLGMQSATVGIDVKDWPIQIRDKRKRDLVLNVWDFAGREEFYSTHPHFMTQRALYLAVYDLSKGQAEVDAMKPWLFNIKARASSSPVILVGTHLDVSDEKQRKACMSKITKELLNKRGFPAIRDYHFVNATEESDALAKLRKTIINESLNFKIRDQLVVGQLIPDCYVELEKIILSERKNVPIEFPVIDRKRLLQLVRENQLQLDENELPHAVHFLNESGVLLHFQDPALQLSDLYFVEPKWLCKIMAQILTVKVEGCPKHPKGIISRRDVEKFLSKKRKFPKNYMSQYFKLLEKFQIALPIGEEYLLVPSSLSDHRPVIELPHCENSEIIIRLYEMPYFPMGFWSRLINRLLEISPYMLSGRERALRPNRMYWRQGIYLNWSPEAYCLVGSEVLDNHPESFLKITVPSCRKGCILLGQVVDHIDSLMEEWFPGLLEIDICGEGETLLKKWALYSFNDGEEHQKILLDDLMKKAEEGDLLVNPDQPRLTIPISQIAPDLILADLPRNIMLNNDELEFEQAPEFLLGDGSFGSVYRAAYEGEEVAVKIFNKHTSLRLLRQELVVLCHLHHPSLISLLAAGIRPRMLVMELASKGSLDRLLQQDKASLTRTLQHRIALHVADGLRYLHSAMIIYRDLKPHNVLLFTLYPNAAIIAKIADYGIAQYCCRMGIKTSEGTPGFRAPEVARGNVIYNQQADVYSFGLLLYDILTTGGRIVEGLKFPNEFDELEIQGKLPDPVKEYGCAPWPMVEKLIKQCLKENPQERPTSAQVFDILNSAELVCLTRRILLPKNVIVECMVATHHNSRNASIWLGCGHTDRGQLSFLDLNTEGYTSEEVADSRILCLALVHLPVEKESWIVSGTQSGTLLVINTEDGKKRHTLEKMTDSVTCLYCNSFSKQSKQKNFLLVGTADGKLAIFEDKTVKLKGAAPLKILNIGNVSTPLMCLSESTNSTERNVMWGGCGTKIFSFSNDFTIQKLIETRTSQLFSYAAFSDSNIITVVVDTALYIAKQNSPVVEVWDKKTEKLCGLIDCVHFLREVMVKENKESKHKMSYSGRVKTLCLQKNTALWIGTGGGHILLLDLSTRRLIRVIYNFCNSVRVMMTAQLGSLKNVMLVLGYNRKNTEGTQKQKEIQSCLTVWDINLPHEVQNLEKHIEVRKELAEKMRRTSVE

LRRK2 phospho-Ser935 = target: T2, LRRK2 phospho-Ser935 (Homo sapiens, UniProt Q5S007); experiment: Cellular LRRK2 phosphoserine 935 dephosphorylation spotblot assay in SH-SY5Y cells stably expressing 3xFlag-LRRK2; type: cell-based; settings: for dephosphorylation of LRRK2 (Ser935): 5 μM, 2 h, SH-SY5Y; for Phosphorylation level relative to solvent (%) (cellular pS935 assay): @ 5 μM for 2 h, SH-SY5Y stably expressing LRRK2, pS935/total LRRK2
T2 construct: expressed in transfected cells
T2 sequence (Q5S007 whole entry): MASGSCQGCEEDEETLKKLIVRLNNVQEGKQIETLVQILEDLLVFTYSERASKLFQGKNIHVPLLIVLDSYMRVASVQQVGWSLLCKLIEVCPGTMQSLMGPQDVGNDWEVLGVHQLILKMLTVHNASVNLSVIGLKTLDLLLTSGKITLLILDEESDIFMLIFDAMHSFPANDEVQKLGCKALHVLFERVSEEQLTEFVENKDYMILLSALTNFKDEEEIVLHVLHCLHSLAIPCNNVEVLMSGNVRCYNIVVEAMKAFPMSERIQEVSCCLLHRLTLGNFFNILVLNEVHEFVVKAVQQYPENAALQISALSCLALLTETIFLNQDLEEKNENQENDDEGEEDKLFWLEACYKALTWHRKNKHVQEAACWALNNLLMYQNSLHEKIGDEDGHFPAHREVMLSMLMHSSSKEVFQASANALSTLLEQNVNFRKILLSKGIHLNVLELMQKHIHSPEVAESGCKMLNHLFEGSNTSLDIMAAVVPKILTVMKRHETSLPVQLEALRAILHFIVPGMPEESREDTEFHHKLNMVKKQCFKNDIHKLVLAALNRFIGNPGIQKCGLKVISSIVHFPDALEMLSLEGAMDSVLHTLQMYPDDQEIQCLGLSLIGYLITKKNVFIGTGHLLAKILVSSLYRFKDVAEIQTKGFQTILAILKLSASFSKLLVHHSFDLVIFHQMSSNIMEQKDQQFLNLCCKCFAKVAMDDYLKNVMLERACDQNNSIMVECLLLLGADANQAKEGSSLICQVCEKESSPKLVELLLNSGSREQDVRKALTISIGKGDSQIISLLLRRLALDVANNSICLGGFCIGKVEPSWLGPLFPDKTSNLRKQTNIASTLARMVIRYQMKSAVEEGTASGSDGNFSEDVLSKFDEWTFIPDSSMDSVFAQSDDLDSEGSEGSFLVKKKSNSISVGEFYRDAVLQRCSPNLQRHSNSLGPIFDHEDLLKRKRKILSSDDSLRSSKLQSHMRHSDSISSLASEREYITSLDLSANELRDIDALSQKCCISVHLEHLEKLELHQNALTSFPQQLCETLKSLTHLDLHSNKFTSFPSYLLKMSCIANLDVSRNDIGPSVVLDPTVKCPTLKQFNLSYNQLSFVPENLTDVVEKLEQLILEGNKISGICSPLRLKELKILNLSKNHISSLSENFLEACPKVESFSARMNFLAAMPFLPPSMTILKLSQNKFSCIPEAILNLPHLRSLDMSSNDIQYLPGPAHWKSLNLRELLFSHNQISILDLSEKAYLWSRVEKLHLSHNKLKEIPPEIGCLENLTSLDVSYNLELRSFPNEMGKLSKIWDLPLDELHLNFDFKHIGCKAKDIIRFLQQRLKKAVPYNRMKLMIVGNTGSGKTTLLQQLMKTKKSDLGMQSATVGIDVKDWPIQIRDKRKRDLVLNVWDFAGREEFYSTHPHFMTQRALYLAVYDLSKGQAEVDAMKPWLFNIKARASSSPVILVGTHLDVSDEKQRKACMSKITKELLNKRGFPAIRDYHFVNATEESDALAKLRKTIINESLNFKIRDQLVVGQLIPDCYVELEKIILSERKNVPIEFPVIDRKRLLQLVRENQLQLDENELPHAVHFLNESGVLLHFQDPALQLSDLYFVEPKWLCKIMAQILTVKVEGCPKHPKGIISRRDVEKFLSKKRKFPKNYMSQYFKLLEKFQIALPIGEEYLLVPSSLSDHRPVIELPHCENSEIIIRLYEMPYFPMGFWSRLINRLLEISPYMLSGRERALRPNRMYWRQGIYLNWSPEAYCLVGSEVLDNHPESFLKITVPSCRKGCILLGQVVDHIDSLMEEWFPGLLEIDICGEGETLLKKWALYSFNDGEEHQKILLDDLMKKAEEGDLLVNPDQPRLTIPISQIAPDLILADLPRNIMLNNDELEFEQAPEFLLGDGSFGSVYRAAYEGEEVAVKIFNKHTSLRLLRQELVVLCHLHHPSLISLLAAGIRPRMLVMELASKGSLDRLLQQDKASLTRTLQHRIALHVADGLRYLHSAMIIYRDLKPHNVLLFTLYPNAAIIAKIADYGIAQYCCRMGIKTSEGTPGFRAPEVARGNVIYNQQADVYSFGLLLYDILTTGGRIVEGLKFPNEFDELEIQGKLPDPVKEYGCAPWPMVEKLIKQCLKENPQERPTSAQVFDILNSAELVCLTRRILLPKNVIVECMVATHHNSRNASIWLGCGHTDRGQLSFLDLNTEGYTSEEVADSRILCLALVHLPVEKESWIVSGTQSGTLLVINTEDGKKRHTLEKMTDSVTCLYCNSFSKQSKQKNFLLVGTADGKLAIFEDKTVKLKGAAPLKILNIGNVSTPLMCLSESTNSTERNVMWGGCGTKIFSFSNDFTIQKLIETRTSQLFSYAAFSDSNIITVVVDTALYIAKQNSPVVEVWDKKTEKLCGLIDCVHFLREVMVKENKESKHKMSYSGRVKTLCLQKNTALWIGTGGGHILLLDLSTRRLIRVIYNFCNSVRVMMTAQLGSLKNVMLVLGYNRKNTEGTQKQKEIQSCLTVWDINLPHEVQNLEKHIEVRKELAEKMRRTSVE

| SMILES | % LRRKtide phosphorylation relative to solvent [1] | dephosphorylation of LRRK2 (Ser935) (LRRK2 phospho-Ser935) | Phosphorylation level relative to solvent (%) (cellular pS935 assay) (LRRK2 phospho-Ser935) | activity on LRRK2 kinase activity in vitro (in words) [1] | Cellular pS935 (% @ 5 μM) (LRRK2 phospho-Ser935; pS935 level as % of control, 5 μM for 2 h, SH-SY5Y cells with stable expression of LRRK2) |
| --- | --- | --- | --- | --- | --- |
| N#C/C(=C/c1ccc(O)c(O)c1)C(=O)NCc1ccccc1 [AG490] | 34.24% | 49.32% | 50.68% | – | – |
| N#CC(C#N)=C(N)/C(C#N)=C/c1ccc(O)cc1 [AG 112] | 77.45% | – | 60.39% | – | – |
| CC(C)(C)c1cc(C=C(C#N)C#N)cc(Br)c1O [AG 1024] | 51.38% | – | 94.37% | – | – |
| Cc1cc2ncc(-c3ccccc3)nc2cc1C [AG 1295] | 89.08% | – | 49.08% | – | – |
| COc1cc2ncc(-c3ccccc3)nc2cc1OC [AG 1296] | 22.76% | – | 50.93% | – | – |
| Cc1nc2cc3nc(-c4cccs4)cnc3cc2n1C [AGL 2043] | 29.68% | – | 90.06% | – | – |
| c1cc(-c2cnn3cc(-c4ccc(OCCN5CCCCC5)cc4)cnc23)ccn1 [AMPK inhibitor, compound C] | 24.40% | – | 112.70% | – | – |
| O=c1cc(-c2cccc3c2Sc2ccccc2S3)oc(N2CCOCC2)c1 [ATM kinase inhibitor] | 86.09% | – | 103.28% | – | – |
| O=C(NC(NC(=S)Nc1ccc(F)c([N+](=O)[O-])c1)C(Cl)(Cl)Cl)C(c1ccccc1)c1ccccc1 (centres unmarked) [ATM/ATR kinase inhibitor] | 131.38% | – | 88.64% | – | – |
| CC[n+]1c(/C=C/N(C)c2ccccc2)n(-c2ccccc2)c2ccc(-c3nc4ccccc4s3)cc21.[I-] [Akt inhibitor IV] | 18.59% | – | 76.44% | – | – |
| CCN(CC)CCCCN1c2ccccc2Oc2ccc(Cl)cc21 [Akt inhibitor X] | 61.91% | – | 69.13% | – | – |
| O=c1[nH]c2ccccc2n1C1CCN(Cc2ccc(-c3nc4cc5nc[nH]c5cc4nc3-c3ccccc3)cc2)CC1 [Akti-1/2] | 99.69% | – | 77.80% | – | – |
| CCCCc1c(-c2ccc(O)cc2)[nH]c2nccnc12 [Aloisine A, RP107, Aloisine A] | 23.85% | – | 102.87% | – | – |
| CCCCc1c(-c2ccc(OC)cc2)[nH]c2nccnc12 [Aloisine, RP106] | 17.45% | – | 109.11% | – | – |
| N#CCCc1ccc2c(c1)-c1[nH]c3ccc([N+](=O)[O-])cc3c1CC(=O)N2 [Alsterpaullone, 2-Cyanoethyl] | 10.82% | – | 96.84% | – | – |
| O=C1Cc2c([nH]c3ccc([N+](=O)[O-])cc23)-c2ccccc2N1 [Alsterpaullone] | 31.34% | – | 108.54% | – | – |

| SMILES | % LRRKtide phosphorylation relative to solvent [1] | dephosphorylation of LRRK2 (Ser935) (LRRK2 phospho-Ser935) | Phosphorylation level relative to solvent (%) (cellular pS935 assay) (LRRK2 phospho-Ser935) | activity on LRRK2 kinase activity in vitro (in words) [1] | Cellular pS935 (% @ 5 μM) (LRRK2 phospho-Ser935; pS935 level as % of control, 5 μM for 2 h, SH-SY5Y cells with stable expression of LRRK2) |
| --- | --- | --- | --- | --- | --- |
| O=C(Nc1cccc(Nc2nccc(Nc3cccc(C(F)(F)F)c3)n2)c1)C1CC1 [Aurora kinase inhibitor III] | 83.96% and 44.16% | ~ 50% | – | inactive | – |
| Nc1nc(Nc2ccc(S(N)(=O)=O)cc2)nn1C(=O)c1c(F)cccc1F [Aurora kinase/Cdk inhibitor] | 1.21% | – | 45.67% | – | – |
| Cc1ccc(S(=O)(=O)/C=C/C#N)cc1 [BAY 11-7082] | 132.94% | ~ 50% | 47.14% | inactive | – |
| NC(=O)c1cccc(-c2cc(Nc3ccc(OC(F)(F)F)cc3)ncn2)c1 [Bcr-abl inhibitor] | 82.04% | – | 78.83% | – | – |
| O=C1NC(=O)C(c2c[nH]c3ccccc23)=C1c1c[nH]c2ccccc12 [Bisindolylmaleimide IV] | 3.07% | – | 84.51% | – | – |
| CN(C)CCCn1cc(C2=C(c3c[nH]c4ccccc34)C(=O)NC2=O)c2ccccc21 [Bisindolylmaleimide I] | 4.46% | – | 73.14% | – | – |
| NC(=O)c1ccc(-c2nc(-c3ccc4c(c3)OCCO4)c(-c3ccccn3)[nH]2)cc1 [Casein kinase I inhibitor, D4476, D4476] | 60.00% | – | 97.88% | – | – |
| O=C(O)/C=C/c1cc(Br)c(Br)c(Br)c1Br [Casein kinase II inhibitor III, TBCA, TBCA] | 16.78% | – | 116.47% | – | – |
| CCN1/C(=C/C(C)=O)Sc2ccc(OC)cc21 [Cdc2-like kinase inhibitor, TG003, TG003] | 37.41% | – | 81.30% | – | – |
| CCn1cnc2c(Nc3cccc(Cl)c3)nc(N[C@@H]3CCCC[C@@H]3N)nc21 [Cdk1 inhibitor, CGP74514A, CGP74514A] | 3.91% | – | 83.35% | – | – |
| Nc1[nH]nc2nc3ccccc3nc12 [Cdk1/5 inhibitor] | 25.04% | – | 123.99% | – | – |
| CCN(CC)C(=O)c1ccc(Nc2nc(OCC3CCCCC3)c3[nH]cnc3n2)cc1 [Cdk2 inhibitor IV, NU6140, NU6140] | 0.98% | – | 34.63% | – | – |
| COc1ccc(OC)c2c(=S)c3ccccc3[nH]c12 [Cdk4 inhibitor II, 625987, NSC 625987] | 76.06% | – | 70.36% | – | – |
| Cc1ccc(NC2=CC(=O)c3sc(C)nc3C2=O)cc1 [Cdk4 inhibitor III] | 26.80% | – | 48.63% | – | – |
| CN[C@@H]1C[C@H]2O[C@@](C)([C@@H]1OC)n1c3ccccc3c3c4c(c5c6ccccc6n2c5c31)C(=O)NC4 [Staurosporine, Streptomyces sp., Staurosporine] | – | – | – | – | 8.89% |
